From patent EP4581943A1, “AEROSOLISABLE MATERIAL FOR USE IN AN ARTICLE” (BT DE Investments Inc., priority 2024, dated 2025)

Tests used:
[1] = Solubility of CBC in solvent systems, step-wise addition, visual inspection; format: physicochemical; conditions: cumulative CBC concentration after addition; solvent PG:VG 70:30
Procedure: (§1) Solvent systems were prepared and then CBG was added in a step-wise fashion and mixed until dissolved (according to visual inspection). The time taken for each addition to be solubilized was recorded.
A similar approach was taken as for example 1, but this time CBC was assessed.

[2] = format: physicochemical
Procedure: as §1

| Compound | Concentration [1] | CBG concentration the solvent system could sustain [2] | time taken to solubilize approximately 5% CBG [2] |
| --- | --- | --- | --- |
| CCCCCc1cc(O)c2c(c1)OC(C)(CCC=C(C)C)C=C2 (stereo not drawn) [CBC, cannabichromene] | 3.0319 %w/w | – | – |
| CCCCCc1cc(O)c(C/C=C(\C)CCC=C(C)C)c(O)c1 [CBG, cannabigerol] | – | ≤ 5 %w/w | > 2 h |
